In paper PMC6591397, “Functional Roles of Metabolic Intermediates in Regulating the Human Mitochondrial NAD(P)^+-Dependent Malic Enzyme” (Scientific Reports, 2019):
Where “and” joins values, the source holds several entries; their conditions need not be identical. Identical values can stand only once. Counter-ions that a name gives are not always drawn.

Columns and labels:
m-NAD(P)-ME = target: T1, m-NAD(P)-ME (Homo sapiens, UniProt P23368); assay: Fumarate titration, activation of enzyme activity; assay type: biochemical; conditions: WT; 15 mM L-malate, 10 mM MgCl2, 1 mM NAD+, pH 7.4; fumarate 0 to 6 mM
T1 construct: made in house; host or cells: E. coli BL21 (pRH281 vector, trp promoter)
Procedure: (§1) The ME reaction was measured with the production rate of NADH or NADPH via the absorbance at 340 nm. The reaction mixture in a saturated condition included 1 mM NAD(P)^+, 40 mM malate, and 10 mM MgCl2 in 50 mM Tris-HCl (pH 7.4). To determine the Km and kcat values, the concentration of one substrate was varied around its Km values while the concentrations of the other components were fixed at saturated concentrations.
Figure S2. Fumarate activating effect on human m-NAD(P)-ME WT and the exosite mutants.

human m-NAD(P)-ME WT = target: T2, human m-NAD(P)-ME WT (Homo sapiens, UniProt P23368); assay: ATP/ADP inhibition of enzyme activity; assay type: biochemical
T2 construct: made in house; host or cells: E. coli BL21 (pRH281 vector, trp promoter)
Procedure: as §1
C is the slope of the curve at its midpoint. […] All of the calculations were performed using the Sigma Plot 10.0 software program (Jandel Scientific, San Rafael, CA, USA).

T2 sequence (P23368 19-584): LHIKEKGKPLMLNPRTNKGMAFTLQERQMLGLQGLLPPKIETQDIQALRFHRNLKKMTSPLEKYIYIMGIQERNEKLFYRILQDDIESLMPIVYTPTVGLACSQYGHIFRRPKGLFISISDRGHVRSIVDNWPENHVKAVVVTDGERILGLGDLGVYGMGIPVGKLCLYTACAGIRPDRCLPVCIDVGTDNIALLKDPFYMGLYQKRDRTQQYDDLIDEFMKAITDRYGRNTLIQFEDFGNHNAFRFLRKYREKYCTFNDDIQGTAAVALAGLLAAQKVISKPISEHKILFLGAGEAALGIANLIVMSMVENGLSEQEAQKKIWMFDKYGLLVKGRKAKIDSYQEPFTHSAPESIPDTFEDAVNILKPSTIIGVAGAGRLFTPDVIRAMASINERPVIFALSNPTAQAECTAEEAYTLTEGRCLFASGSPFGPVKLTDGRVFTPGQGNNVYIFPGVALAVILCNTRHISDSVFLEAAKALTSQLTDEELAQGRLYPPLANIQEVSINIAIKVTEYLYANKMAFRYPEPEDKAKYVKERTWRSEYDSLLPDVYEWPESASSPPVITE
T1 sequence (P23368 19-584): as above

Structure (SMILES)	maximal activation of the enzyme by fumarate (m-NAD(P)-ME)	IC50 (human m-NAD(P)-ME WT)
O=C(O)/C=C/C(=O)O [FUM, fumarate]	approximately 2 fold	–
Nc1ncnc2c1ncn2[C@@H]1O[C@H](COP(=O)(O)OP(=O)(O)O)[C@@H](O)[C@H]1O [ADP]	–	3.74 mM and 3.7 mM
